# Read-outs that look alike come from different tables or passages of the source.
# How the values were obtained:
# Assay in all cases: Determination of MIC values (BHI broth, 96 well microtiter plate)
# Format in all cases: cell-based
# [1] = tested on: methicillin-resistant Staphylococcus aureus (MRSA); conditions: MRSA; for MIC: Staphylococcus aureus, read-out: MIC MRSA
# Summary of the method: (§1)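 Organisms are grown in BHI at 37° C (about 7% CO2) to a 0.5 McFarland standard, then inoculated at 10^5 to 10^6 cells/mL into BHI holding twofold compound dilutions (final 25 down to 0.39 µg/mL, DMSO-diluted). After overnight incubation, MIC is the lowest concentration lacking growth.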
# Streptococcus pneumoniae = conditions: for MIC: Streptococcus pneumoniae, read-out: MIC S. pneu
# Summary of the method: as §1
# [2] = tested on: vancomycin-resistant Enterococcus spp. (VRE); conditions: for MIC: Enterococcus, VRE, read-out: MIC VREF
# Summary of the method: as §1
# [3] = S. pneu, BHI broth, overnight 37° C.
# [4] = VREF, BHI broth, overnight 37° C.
# [5] = 16 h, BHI broth, 37° C., about 16 hours
# [6] = BHI broth, 37° C., about 16 hours
# [7] = 16 h, BHI broth, 37° C., overnight (about 16 hours)
# [8] = BHI broth, 37° C., overnight (about 16 hours)
Compound,"MIC ([1]; BHI broth, overnight 37° C.)",MIC (Streptococcus pneumoniae; [3]),"MIC [2, 4]","MIC [1, 5]",MIC (Streptococcus pneumoniae; [6]),"MIC [2, 5]",other results
NCc1cccc(CNC(=O)c2cc(-c3c[nH]c4ccc(Br)cc34)nc3ccc(C#CCN4CCCC4)cc23)c1 [Example 242],< 7 µg/mL,< 7 µg/mL,< 25 µg/mL,–,–,–,–
C[Si](C)(C)CCOC(=O)n1cc(-c2nc3ccc(Cl)cc3c3c2CCO3)c2cc(Br)ccc21 [Example 421],–,–,–,–,–,–,MIC ([1]; 16 h): > 25 µg/mL; MIC (Streptococcus pneumoniae; 16 h): > 25 µg/mL; MIC ([2]; 16 h): > 25 µg/mL
N#Cc1ccc2[nH]cc(-c3ccc4cc(Cl)ccc4n3)c2c1 [Example 292],–,–,–,–,–,–,"MIC MRSA ([1]; BHI broth, overnight 37° C.): > 25 µg/mL; MIC S. pneu (Streptococcus pneumoniae; [3]): > 25 µg/mL; MIC VREF [2, 4]: >25 µg/mL"
NCC1CCCC(CNC(=O)c2cc(-c3c[nH]c4ccc(Br)cc34)nc3c(Cl)c(Cl)ccc23)C1 (stereo not drawn) [Example 278],< 7 µg/mL,< 7 µg/mL,< 7 µg/mL,–,–,–,–
NCc1ccc(CNC(=O)c2cc(-c3c[nH]c4ccc(Br)cc34)nc3ccc(-c4ccccc4)cc23)cc1 [Example 96],–,–,–,–,–,–,"MIC [1, 7]: < 7 µg/mL; MIC (Streptococcus pneumoniae; [8]): < 7 µg/mL; MIC [2, 7]: < 7 µg/mL"
NCC1CCCC(CNC(=O)c2cc(-c3c[nH]c4ccc(Br)cc34)nc3ccc(Br)cc23)C1 (stereo not drawn) [Example 123],–,–,–,–,–,–,"MIC [1, 7]: < 7 µg/mL; MIC (Streptococcus pneumoniae; [8]): < 7 µg/mL; MIC [2, 7]: < 7 µg/mL"
Cn1cc(-c2ccc3cc(Cl)ccc3n2)c2cc(O)ccc21 [Example 221],< 7 µg/mL,< 7 µg/mL,< 7 µg/mL,–,–,–,–
COc1ccc(NC(=O)c2cc(-c3c[nH]c4ccc(Br)cc34)nc3ccc(I)cc23)cc1 [Example 174],–,–,–,–,–,–,"MIC [1, 7]: < 7 µg/mL; MIC (Streptococcus pneumoniae; [8]): < 25 µg/mL; MIC [2, 7]: > 25 µg/mL"
NCC1CCC(CNC(=O)c2cc(-c3c[nH]c4ccc(Br)cc34)nc3ccc(Br)cc23)CC1 (stereo not drawn) [Example 124],–,–,–,–,–,–,"MIC [1, 7]: < 7 µg/mL; MIC (Streptococcus pneumoniae; [8]): < 7 µg/mL; MIC [2, 7]: < 7 µg/mL"
Cn1cc(-c2ccc3cc(Cl)ccc3n2)c2ccc(Cl)cc21 [Example 219],> 25 µg/mL,< 25 µg/mL,> 25 µg/mL,–,–,–,–
NCc1ccc(CNC(=O)c2cc(-c3c[nH]c4ccc(Br)cc34)nc3cc(C#CCN4CCSCC4)ccc23)cc1 [Example 270],< 25 µg/mL,> 25 µg/mL,< 25 µg/mL,–,–,–,–
O=C(O)c1cc(-c2c[nH]c3ccc(Br)cc23)nc2ccc(C#CCNC3CCCCC3)cc12 [Example 233],> 25 µg/mL,< 25 µg/mL,< 25 µg/mL,–,–,–,–

# Further lines, with some results ahead:
"MIC ([1]; BHI broth, overnight 37° C.)",MIC (Streptococcus pneumoniae; [3]),"MIC [2, 4]","MIC [1, 5]",MIC (Streptococcus pneumoniae; [6]),"MIC [2, 5]",Compound,other results
< 7 µg/mL,< 7 µg/mL,< 7 µg/mL,–,–,–,OCc1cc(-c2c[nH]c3ccc(Br)cc23)nc2cc(Br)ccc12 [Example 335],–
–,–,–,> 25 µg/mL,< 25 µg/mL,> 25 µg/mL,Cc1ccc2nc(-c3c(C)[nH]c4ccccc34)ccc2c1 [Example 466],–
< 7 µg/mL,< 7 µg/mL,< 7 µg/mL,–,–,–,Cn1cc(-c2cc(C(=O)NCCN)c3ccc(F)cc3n2)c2cc(Br)ccc21 [Example 325],–
< 7 µg/mL,< 7 µg/mL,< 7 µg/mL,–,–,–,NCc1ccc(/C=C/c2cc(-c3c[nH]c4ccc(Br)cc34)nc3cc(Br)ccc23)cc1 [Example 374],–
–,–,–,< 25 µg/mL,< 25 µg/mL,> 25 µg/mL,Cc1[nH]c2ccccc2c1-c1ccc2cccc(C)c2n1 [Example 472],–
–,–,–,< 7 µg/mL,< 7 µg/mL,< 7 µg/mL,CNCCN(C)C(=O)c1cc(-c2c[nH]c3ccc(Br)cc23)nc2ccc(I)cc12 [Example 502],–
> 25 µg/mL,> 25 µg/mL,> 25 µg/mL,–,–,–,O=[N+]([O-])c1cccc2nc(-c3c[nH]c4ccc(Cl)cc34)ccc12 [Example 385],–
–,–,–,< 7 µg/mL,< 7 µg/mL,< 25 µg/mL,OCc1cc(-c2c[nH]c3ccc(Br)cc23)nc2c(F)cccc12 [Example 444],–
–,–,–,< 7 µg/mL,< 7 µg/mL,< 7 µg/mL,CC(C)N(CC#Cc1ccc2nc(-c3cn(C)c4ccc(Br)cc34)cc(C(=O)NCCN)c2c1)C(C)C [Example 408],–
< 7 µg/mL,< 7 µg/mL,< 7 µg/mL,–,–,–,Cn1cc(-c2cc(C(=O)NCC3CCC(CN)CC3)c3cc(Cl)ccc3n2)c2cc(Br)ccc21 (stereo not drawn) [Example 368],–
–,–,–,< 7 µg/mL,< 25 µg/mL,> 25 µg/mL,Clc1ccc2nc(-c3c[nH]c4ccc(Br)cc34)c3c(c2c1)OCC3 [Example 448],–
< 7 µg/mL,< 7 µg/mL,< 7 µg/mL,–,–,–,Fc1ccc2[nH]cc(-c3cc(Cl)c4ccccc4n3)c2c1 [Example 339],–
–,–,–,< 25 µg/mL,< 25 µg/mL,> 25 µg/mL,Cc1ccc2[nH]c(C)c(-c3ccc4cccc(C)c4n3)c2c1 [Example 426],–
–,–,–,< 7 µg/mL,< 25 µg/mL,> 25 µg/mL,COc1ccc(NC(=O)c2cc(-c3c[nH]c4ccc(Br)cc34)nc3ccc(C#CCN4CCCCC4)cc23)cc1 [Example 485],–
